For assay [1], the target named is Bacillus subtilis 168 formate dehydrogenase YjgCD heterodimer, wild type (6his-YjgC, SEQ ID NO: 1; YjgD, SEQ ID NO: 3) (Bacillus subtilis, UniProt O34720). The conditions noted are these: formate oxidation, benzyl viologen as artificial electron acceptor, 25 mM CHES pH 10, 25°C. The protocol: FDH activity was determined using an Avaspec-2048L spectrometer (Avantes), inside an anaerobic glovebox filled with an atmosphere of 100% N2. The experiments were carried out at room temperature (25°C) with stirring.
For formate::benzyl viologen OR measurements, the reduction of 17.5 mM benzyl viologen (BV) was monitored at 600 nm (ε600 nm BV^+ = 7.0945 mM^-1 cm^-1) in 25 mM CHES pH 10 after addition of 50 mM sodium formate. One unit of oxidizing activity is defined as the amount of FDH capable of oxidizing 1 µmol of formate par min per mg of enzyme.
First the yjgCD operon was expressed under the control of an inducible promoter and the YjgC protein to which a 6-histidine tag was added at the N-terminus was purified.

Assay [2] has as its target T1, YjgC 6his-tagged in N-terminal (His-YjgC), Bacillus subtilis 168 (Bacillus subtilis 168, UniProt O34720 1-985).
T1 construct: Expressed from the yjgCD operon under a xylose inducible promoter in B. subtilis strain 4088 and purified on Ni-NTA; Carries Mo-bisPGD and Fe-S cofactors; also called 6his-YjgC; catalytic subunit of YjgCD; not shown: N-terminal 6-his tag followed by a TEV cleavage site
T1 sequence: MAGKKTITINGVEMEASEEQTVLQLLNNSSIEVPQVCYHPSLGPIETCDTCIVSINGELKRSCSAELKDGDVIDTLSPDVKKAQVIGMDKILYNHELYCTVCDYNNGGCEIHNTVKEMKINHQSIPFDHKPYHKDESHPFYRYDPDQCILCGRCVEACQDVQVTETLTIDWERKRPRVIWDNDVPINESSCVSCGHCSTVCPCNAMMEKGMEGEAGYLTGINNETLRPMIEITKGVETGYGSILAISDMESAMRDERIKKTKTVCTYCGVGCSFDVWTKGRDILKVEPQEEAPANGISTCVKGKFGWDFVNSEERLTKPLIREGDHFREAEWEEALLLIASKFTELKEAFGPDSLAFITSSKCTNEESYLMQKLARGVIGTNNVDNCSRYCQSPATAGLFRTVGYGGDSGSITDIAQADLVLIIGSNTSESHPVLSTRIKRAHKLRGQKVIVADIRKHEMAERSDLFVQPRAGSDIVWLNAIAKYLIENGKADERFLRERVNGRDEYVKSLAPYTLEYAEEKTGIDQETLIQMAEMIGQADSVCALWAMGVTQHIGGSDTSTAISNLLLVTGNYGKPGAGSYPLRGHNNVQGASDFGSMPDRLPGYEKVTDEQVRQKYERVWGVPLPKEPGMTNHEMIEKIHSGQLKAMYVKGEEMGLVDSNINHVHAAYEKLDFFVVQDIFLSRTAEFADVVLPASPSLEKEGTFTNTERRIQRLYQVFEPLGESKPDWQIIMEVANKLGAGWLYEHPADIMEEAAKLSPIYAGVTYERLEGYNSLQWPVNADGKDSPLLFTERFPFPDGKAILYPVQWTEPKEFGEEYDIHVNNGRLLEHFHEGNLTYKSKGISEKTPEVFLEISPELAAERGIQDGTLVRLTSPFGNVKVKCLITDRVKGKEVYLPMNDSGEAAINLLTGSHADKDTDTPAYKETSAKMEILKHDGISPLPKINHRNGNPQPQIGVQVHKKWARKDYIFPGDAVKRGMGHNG
The assay is described as follows: Ni-NTA affinity purification of His-YjgC, Coomassie-stained SDS-PAGE.

For orientation: Km means the substrate concentration at which the rate is half of its maximum. For formate, the Kcat in assay [1] (anaerobic, YjgCD heterodimer MW 132 kDa) is 96,1 ± 4 s^-1. The Michaelis-Menten constant (Km) in assay [1] (read-out: KM formate, anaerobic (100% N2)) was found to be 5.1 mM.

B1: YjgD protein of Bacillus subtilis 168 (other)
chain: MAKAIKRIQKIEVTEEDQRKRDLREIEDALIDHKEAILETLHMLGHMNERGVLPLLRGLFGQGDKVLDILVKKADTEETANTLKNLLLLFGTLGMLDVKQLEPLILKVNAGVASAVEQKNSEEKTGYFDIIRSLKDPEINKSITLLFSFLKGMGQDTKELERTTQPPEHQKHHQEPREKRGMNKRD
notes: Untagged and co-expressed with His-YjgC from the yjgCD operon; Predicted monomeric mass 21.3 kDa; also called partner subunit of YjgCD
On to B1, for which the binding result in assay [2] is reported as “binds”.

(Values after patent EP4116414A1 (Centre National de la Recherche Scientifique, dated 2023).)
